How the values were obtained:
[1] = Viability assay: effect of selected compounds on viability; type: cell-based; conditions: for viability at 1 µM: 1.0 μM compound; for viability at 10 µM: 10 μM compound
[2] = system: PC3M-prostate cancer cells; assay: Imaging of microtubule stability by tubulin staining and confocal microscopy; type: cell-based, human; conditions: PC3M cells, 24, 48 and 72 hours
Method: Cells were seeded on glass coverslips. 24 hours later, cells were treated with compound OBD9. After the indicated times (24 hours, 48 hours, and 72 hours), cells were fixed with paraformaldehyde (4% in PBS), permeabilized Triton-X100 (0.02% in Phosphate buffered saline), then stained with mouse antibody to human tubulin (1:200 dilution) and then with 1:400 goat anti-mouse IgC (Invitrogen) and viewed via confocal microscopy at (63× objective).

[3] = system: tubulin; assay: Tubulin polymerization assay (Cytoskeleton Inc. kit, fluorescent reporter); type: biochemical; conditions: fluorescence-based polymerization kinetics
Method: Tubulin polymerization was measured using the tubulin polymerization assay kit from Cytoskeleton Inc., which measures tubulin polymerization kinetic via fluorescent enhancement to the incorporation of a fluorescent reporter into microtubules as polymerization takes place.

[4] = system: parental (DU145) prostate cancer cells; assay: Apoptosis by PARP-1 and Caspase-3 blot after 48 h treatment; type: cell-based; conditions: 48 hours after treatment
Method: (§1) Cells were seeded in 6-well dishes at 50% confluence. Cells were treated with the compound OBD9 after 24 hours. 48 hours later, cells were lysed with lysis buffer and protein was collected and quantified with the BCA assay (Invitrogen). 20 micrograms of protein were loaded on 10% polyacrylamide gels. The gels were blotted onto nitrocellulose and stained with rabbit antibody to PARP-1 and Caspase-3 (both from Cell Signaling) and then visualized with goat, anti-rabbit HRP-conjugated antibody and HRP conjugated GAPDH.

[5] = system: high metastatic (DU145LN4) prostate cancer cells; assay: as above; type: cell-based; conditions: 48 hours after treatment
Method: as §1

Row | Structure (SMILES) | viability at 1 µM [1] [%] | viability at 10 µM [1] [%] | effect on microtubule (tubulin) stability [2] | effect on tubulin polymerization [3] | apoptosis induction (PARP-1, Caspase-3) [4] | apoptosis induction (PARP-1, Caspase-3) [5]
1 | COC(=O)Nc1nc2cc(C(=O)c3ccc(N(C)C4COC4)cc3)ccc2[nH]1 [Compound 9] | 34.9 | 34.3 | interferes with microtubule (tubulin) stability | disrupts (inhibits) tubulin polymerization | induces apoptosis | induces apoptosis
2 | COC(=O)Nc1nc2cc(Oc3cccc(N4CCN(C)CC4)n3)ccc2[nH]1 [Compound 12] | 94.5 | 35.2 | – | – | – | –
3 | COC(=O)Nc1nc2cc(Oc3cccc(N4CCN(C)CC4)c3)ccc2[nH]1 [Compound 13] | 80.9 | 49.1 | – | – | – | –
4 | CCCSc1ccc2[nH]c(NC(=O)OCCN(C)C)nc2c1 [Compound 15] | 97.4 | 35.3 | – | – | – | –
5 | CCCSc1ccc2[nH]c(NC(=O)OCCCN(C)C)nc2c1 [Compound 16] | 90.1 | 90.3 | – | – | – | –
6 | CN(C)CCCOC(=O)Nc1nc2cc(C(=O)c3ccc(F)cc3)ccc2[nH]1 [Compound 17] | 93.9 | 84.8 | – | – | – | –
